How the values were obtained:
Format in all cases: cell-based, Mouse
3T3-L1 adipocytes [1] = experiment: Triglyceride degradation in adipocytes (glycerol quantification); settings: FIG. 9; HTGT 10, 50 or 100 μg/mL, IBMX 500 μM; 4 hours
3T3-L1 adipocytes [2] = experiment: Oxygen consumption rate (XF analyzer) in adipocytes; settings: FIG. 18; 20 μM GCG, 24 hours; with oligomycin, FCCP, rotenone/antimycin A; normalized to protein
Description: Mouse-derived 3T3-L1 adipocytes (American Type Culture Collection, ATCC) were cultured in an incubator using DMEM (Dulbecco's modified Eagle's medium; Sigma-Aldrich) containing 10% bovine calf serum (BCS; HyClone) and 1% penicillin/streptomycin (P/S; Sigma-Aldrich) under a standard condition (37° C., 5% CO2). For cellular differentiation, 48 hours after the cells were filled 100% on a plate, they were cultured again for 48 hours after replacing the medium with DMEM supplemented with 10% fetal bovine serum (FBS; Hyclone), 1% P/S, 0.5 mM 3-isobutyl-1-methylxanthine (IBMX; Sigma-Aldrich), 1 μM dexamethasone (Sigma-Aldrich) and 5 μg/mL insulin (Sigma-Aldrich). Then, differentiation of adipocytes was induced by culturing the cells additionally for 10 days while replacing the medium with a medium supplemented with 10% FBS, 5 μg/mL insulin and 1% P/S at two-day intervals.
The adipocytes differentiated as in Reference Example 1 were treated with 20 μM gallocatechin gallate (GCG), which is contained in large quantities particularly in the heat-transformed green tea extract (HTGT) (Table 2), for 24 hours. A negative control group was treated with a vehicle (distilled water).
Then, oxygen level and oxygen consumption rate (OCR) were measured using an XF analyzer (Agilent, Santa Clara, Calif., USA). […]

[3] = system: brown adipocyte-associated markers (Ucp1, Cidea, Cox8b, Dio2, Elovl3, Pgc1a, Prdm16); experiment: Brown adipocyte-associated marker gene expression (qPCR) in adipocytes; settings: FIG. 14; GCG 0.1, 1, 5, 10 or 20 μM; 24 hours
Description: After extracting RNA using Trizol™ reagent (Thermo Fisher Scientific), cDNA was synthesized using a RevertAid™ 1st strand cDNA synthesis kit (Thermo Fisher Scientific). Then, the expression level of target genes was quantified by CFX96 real-time quantitative PCR (qPCR; Bio-Rad) using a housekeeping gene (cyclophilin).

CC(C)Cn1c(=O)n(C)c(=O)c2[nH]cnc21 [IBMX, 3-isobutyl-1-methylxanthine]
degradation of triglycerides in adipocytes (glycerol produced) (3T3-L1 adipocytes [1]): facilitating the degradation of triglycerides in adipocytes

O=C(O[C@@H]1Cc2c(O)cc(O)cc2O[C@H]1c1cc(O)c(O)c(O)c1)c1cc(O)c(O)c(O)c1 [GCG, gallocatechin gallate]
oxygen consumption rate (OCR) (3T3-L1 adipocytes [2]): increased OCR | expression of Elovl3 [3]: increased the expression of the fat degradation-associated Elovl3 | expression of Prdm16 [3]: not changed significantly | expression of uncoupling protein 1 (Ucp1) [3]: increased the expression

— patent US20220218778A1, “COMPOSITION FOR REDUCING BODY FAT COMPRISING GREEN TEA EXTRACT CONTAINING GALLOCATECHIN GALLATE AS AN ACTIVE INGREDIENT AND MANUFACTURING METHOD THEREOF” (AMOREPACIFIC CORPORATION, priority 2021, published 2022)
